Measurements: patent publication US10111884B2, “Methods and compositions for treating viral infections” (THE HONG KONG UNIVERSITY OF SCIENCE AND TECHNOLOGY, priority 2012, dated 2018)
Like-named read-outs stand apart in the source and are kept apart here.

How the values were obtained:
[1] = test system: human foreskin fibroblasts (HFF) cells; assay: Cytotoxicity observed alongside plaque reduction assay; assay type: cell-based
[2] = test system: CMV; assay: CMV plaque reduction assay in HFF monolayers; assay type: cell-based, human cytomegalovirus
From the text: The CMV strains used were: AD169 (obtained from the American Type Culture Collection), and TB40/E. In addition, low-passage clinical isolates CI704, and CI893, recovered at the Hadassah Clinical Virology Laboratory from the urine of congenitally-infected newborns, and propagated for 3-5 passages, were used for some experiments. All CMV strains were propagated and titered in human foreskin fibroblasts (HFF) cells. Cell-free virus stocks and cell-associated clinical isolates were maintained at −70° C. Viral stocks were titered by serial 10-fold dilution in 24-well tissue culture plates containing HFF monolayers overlaid with agarose-medium. After incubation for 7 to 10 days, plaques were enumerated, and virus titer was determined as plaque forming units (PFU) per milliliter (ml). Stocks of artemisone, artemiside, RW177, compound IX, and artesunate were freshly prepared at 10 mM concentration in DMSO. Ganciclovir, stored as 10 mM stock was used in comparative assays.
Cell monolayers were inoculated in 24-well culture plates with 0.2 ml of virus suspension containing 60 to 100 PFU per well. After adsorption for 60 min at 37° C., the inoculum was removed, and culture medium was replaced with agarose-medium overlay containing the tested drug. The following final drug concentrations were used: Artemisone: 0, 0.1, 1, 5, 10, 25, and 50 μM; Artesunate: 0, 1, 5, 10, 25, 50, and 100 μM; Ganciclovir, artemiside, compound IX and RW177: 0, 0.1, 1, 5, 10, 25, and 50 μM. Plates were incubated for 10 days at 37° C. in a 5% CO2 incubator. Plaques were then counted microscopically. The drug concentration required to reduce the number of plaques to 50% of the control value (IC50), was calculated.
(§1) Antiviral activity of artemisone was determined by applying various drug concentrations to a growing virus in cell culture, using a standard plaque reduction assay. Artesunate, a compound known to have significant anti-viral activity, was tested in parallel. Ganciclovir was used as an additional positive control. The IC50 values of at least three separate experiments with each drug and virus were averaged, and the results are reported as mean±standard deviation values. Representative curves of plaque reduction assay for artemisone and artesunate are depicted in FIGS. 2A and 3A, respectively.

[3] = male rats, 50 mg/kg for 14 days; cited from earlier work
[4] = test system: HCMV strain AD169 IE1/2 antigen; assay: Immunofluorescence assay of viral immediate early (IE1/2) gene expression; assay type: cell-based, human cytomegalovirus; conditions: 24 hpi; for viral IE gene expression (in words): 25 μM
Protocol: (§2) Human foreskin fibroblasts (HFF) were infected with HCMV strain AD169. At 1 hour post infection (hpi), artemisone (25 μM) or ganciclovir (25 μM) were added to the growth medium, and the cells were further incubated in the presence of the drug, until prepared for immunofluorescence analysis at 24 and 72 hpi—to analyze the expression of IE and pp65, respectively. Control untreated infected cells, and mock-infected cells were analyzed in parallel.
(§3) Cells grown on 8-well glass slides were infected at a multiplicity of infection (moi) of 0.1 PFU/cell. Supernatant was removed at 24 and 72 hpi, and cells were washed 3 times with PBS and fixed with 3.7% formaldehyde for 30 minutes at room temperature. Cells were washed 5 times with PBS+1% NH4Cl, permeabilized by 0.1% TX100 for 5 minutes and washed 5 times with PBS+1% NH4Cl. After 1 hour of blocking using 1% BSA in PBS, the indicated primary monoclonal antibodies (IE1/2 or pp65) were added to the cells in appropriate dilution in 0.5% BSA in PBS and incubated either at room temperature for 2 hours or overnight at 4° C. The secondary antibody was added to the cells in appropriate dilution in PBS containing 0.5% BSA for 30 minutes at room temperature and washed by PBS.
(§4) Following mounting with commercial mounting media, with addition of 4′,6-diamidino-2-phenylindole (DAPI) nuclear stain (yielding nuclear blue stain in all cells), the cells were analyzed by fluorescence microscopy. Results were monitored on at least 3 independent experiments, scoring at least 5 fields (of between 500 and 800 cells each) for each treatment arm.

[5] = test system: CMV; assay: Quantification of viral DNA in infected cells by real-time PCR (CMV gB gene); assay type: cell-based, human cytomegalovirus; conditions: FIGS. 2B, 3B
Protocol: Viral DNA quantity in infected cells with and without added drugs (expressed as genome copies/well) was determined by real-time PCR assay, following DNA extraction from cells, with the use of primers and probe derived from the CMV gB gene.
The results of Example 1 were confirmed by quantitation of viral DNA using real-time PCR. […] Representative curves of viral DNA accumulation for artemisone and artesunate are depicted in FIGS. 2B and 3B, respectively.

[6] = preclinical in vitro and in vivo screens; cited from earlier work
[7] = test system: CMV; assay: CMV antiviral activity in retinal epithelial cells (RPE) culture; assay type: cell-based, human cytomegalovirus
Protocol: as §1

[8] = test system: HCMV strain AD169 pp65 antigen; assay: Immunofluorescence assay of viral late (pp65) gene expression; assay type: cell-based, human cytomegalovirus; conditions: 72 hpi; for viral late (pp65) gene expression (in words): 25 μM
Protocol: as §2, §3, §4

[9] = test system: human endothelial cells; conditions: D'Alessandro et al., 2007; cited from earlier work
[10] = test system: HCMV strain TB40/E; assay: Antiviral drug susceptibility in ex-vivo HCMV-infected decidual organ cultures (normalized viral DNA); assay type: cell-based, human cytomegalovirus; conditions: Human betaherpesvirus 5, TB40/E 10^5 PFU/well, 8 dpi, read-out: IC50 (drug concentration required to reduce normalized tissue viral DNA copy number by 50%)
Protocol: For infection of decidual organ cultures, the tissues were placed in 48-well plates (˜5 slices/well to maintain optimal viability) immediately after the sectioning and inoculated with the indicated virus (10^4 plaque forming units/well, unless indicated otherwise) for 12 hours to allow effective viral adsorption. Following viral adsorption, the cultures were washed extensively and further incubated for the duration of the experiment with replacement of the culture medium every 2-3 days.
DNA and RNA were extracted from the samples using the QIAamp DNA Mini Kit extraction kit and RNeasy Mini Kit (QIAGEN, Hilden, Germany) respectively, according to the manufacturer's instructions. The purified DNA samples were subjected to a quantitative real-time PCR reaction on a 7900HT Real Time PCR system (Applied Biosystems, Foster City, Calif., USA), using primers and probes derived from the HCMV glycoprotein B (gB) as described in Boeckh et al., 2004, J. Clin. Microbiol., 42, 1142-1148. […] The purified RNA samples were subjected to reverse transcription using GoScript™ (Promega, Madison, USA), followed by quantitative real-time PCR of the late HCMV R160461 spliced mRNA as described in White et al., 2004, J. Virol., 78, 1817-1830. […]

[11] = Human betaherpesvirus 5, 240 h, read-out: IC50 (drug concentration required to reduce the number of plaques to 50% of control), mean ± standard deviation
[12] = IE1 ± IE2 antigen, drug 25 μM, HFF, AD169
[13] = pp65 antigen, drug 25 μM, HFF, AD169

Structure (SMILES)	IC50 [2, 11] [µM]	viral IE gene expression (in words) [4]	CMV antigen-positive cells (%) [4, 12] [%]	viral late (pp65) gene expression (in words) [8]	CMV antigen-positive cells (%) [8, 13] [%]	IC50 [10] [µM]	other results
CC1CCC2[C@@H](C)[C@H](N3CCS(=O)(=O)CC3)OC3O[C@]4(C)CCC1C32OO4 (stereo in doubt) [Artemisone]	0.9 ± 0.3	significant reduction	0	highly efficient reduction	0		cytotoxicity [1]: no cytotoxicity; IC50 ([2]; Human betaherpesvirus 5, representative curve, FIG. 2A / FIG. 3A, read-out: IC50 value for this assay (inhibition of CMV plaque formation, dose response curve)): 1.2 µM; tolerability [3]: no effect as compared to controls; antiviral efficacy by quantitation of viral DNA [5]: far superior to that of artesunate; neurotoxicity [6]: does not elicit neurotoxicity; antiviral activity compared to artesunate [7]: Superior antiviral activity; anti-angiogenic effect compared to dihydroartemisinin [9]: significantly less anti-angiogenic than dihydroartemisinin
C[C@H]1[C@H](OC(=O)CCC(=O)O)O[C@@H]2O[C@@]3(C)CC[C@H]4[C@H](C)CC[C@@H]1[C@@]24OO3 [Artesunate, artesunate, reference compound]	10.8 ± 4.2						IC50 ([2]; Human betaherpesvirus 5, read-out: IC50 value for this assay (inhibition of CMV plaque formation, dose response curve)): 15 µM
Nc1nc(O)c2ncn(COC(CO)CO)c2n1 [Ganciclovir, ganciclovir]		did not inhibit IE gene expression	5.97	highly efficient reduction	0.18	1.5	CMV antigen-positive cells per field (N) [4, 12]: 33 ± 5; CMV antigen-positive cells per field (N) [8, 13]: 1 ± 0.25
Nc1nc2c(ncn2COCCO)c(=O)[nH]1 [acyclovir]						18.3	
C[C@H]1[C@H](N2CCSCC2)O[C@@H]2O[C@@]3(C)CC[C@H]4[C@H](C)CC[C@@H]1[C@@]24OO3 [artemiside, reference compound]	> 40						
CC1CCC2[C@@H](C)[C@H](NS(N)(=O)=O)OC3O[C@]4(C)CCC1C32OO4 (stereo partly drawn) [compound IX]							IC50 ([2]; Human betaherpesvirus 5, 240 h, at least three separate experiments averaged, 10 days incubation, read-out: IC50 (drug concentration required to reduce the number of plaques to 50% of control), mean ± standard deviation): 2.1 ± 0.6 µM
